The values below come from patent publication US9132136B2, “Pharmaceutical combination” (HOFFMANN-LA ROCHE INC., priority 2010, dated 2015).

Entries after “also recorded” stand apart in the source; their conditions may differ. Counter-ions that a name gives are not always drawn. Like-named read-outs stand apart in the source and are kept apart here.

As usually defined, the EC50 is the concentration that produces a half-maximal response.

One data set addresses T1, mouse TAAR1 (Mus musculus, UniProt Q923Y8).
T1 construct: expressed in transfected cells
The data set can be described thus: In vitro functional activity (cAMP assay) at mouse TAAR1 receptor in recombinant HEK293 cells. In kind it is cell-based. The conditions noted are these: for Emax: HEK293, relative to phenylethylamine having 100% agonistic activity, read-out: % efficacy. The protocol: In Vitro Functional Activity of TAAR1 Agonists at Mouse TAAR1 Receptor
Recombinant HEK293 cells expressing the mouse TAAR1 were grown at 37° C. and 5% CO2/95% air in 250 ml Falcon culture flasks in 30 ml culture medium. The cell culture medium contained DMEM high glucose, fetal calf serum (10%, heat inactivated for 30 min at 56° C.), geneticin G418 (500 μg/ml), and penicillin/streptomycin (1%). Cells were harvested when 80-90% confluent. Then culture medium was then removed from the culture flasks, cells washed once with 5 ml of PBS. After removing the wash solution, 5 ml of trypsin/EDTA solution were added for 5 min at 37° C. Afterwards, 45 ml of culture medium was added to the 5 ml detached cell solution and the total 50 ml transferred into a 50 ml Falcon tube (ref: 2070), the tube was centrifuged at 1300 rpm for 3 min at RT and the culture medium removed. The cell pellet was resuspended in fresh culture medium and brought to 5×10 E5 cells per milliliter. Then the cells were plated in 96-well Plate (BIOCOAT 6640 from Becton Dickinson) with a multipipette (100 μl/well, 50 000 cells/well) and incubated 20 h at 37° C.
The cell culture medium was removed and the cells washed once with PBS. 50 μl of PBS (AMIMED Endotoxine free: 8-05F00-1) with 1 mM IBMX were added and the cells allowed to incubate for 30 min at 37° C. and 5% CO2/95% air. Then 50 μl of a (e.g.) 20 μM compound solution or 50 μl of a 50% beta-PEA stimulation concentration in PBS (AMIMED Endotoxine free) with 1 mM IBMX were added and the cells incubated for 30 min at 37° C. as above again. After the incubation the cells were lysed with 50 μl of the 3× Detection Mix solution containing Ru-cAMP, Alexa700-cAMP Ab and lysis buffer for at least 60 min (better 2 h) at RT under strong shaking. The fluorescence is measured on the NanoScan (10M reader) (Ex. 456 nm, Em. 630 & 700 nm).
Efficacy values (% eff.) are relative to phenylethylamine having 100% agonistic activity.
In general terms: Changes in cAMP serve as a functional read-out for many G protein-coupled receptors.

A short description of data set [1]: Oral glucose tolerance test (oGTT) in male C57Bl6 mice. In kind it is in vivo, male C57BL/6J mice. The protocol:
An oral glucose tolerance test (oGTT) was performed in C57Bl6 mice to address potential anti-diabetic effects of TAAR1 agonists. Male C57BL/6J mice (Charles River Laboratories, Lyon, France) were stratified into groups of 8 mice according to body weight. The evening before the animals received 1 g food, this corresponds to a fasting period of about 10 hours. At the experiment day the animals were treated with TAAR1 agonists or placebo (0.3% Tween 80) 45 minutes prior to an oral glucose challenge of 2 g/kg. The main readout was blood glucose measured with Accu-Chek Aviva. In parallel blood samples were taken for insulin determination.

Data set [2] relates to cocaine-induced hyperlocomotor activity in mice. The data set can be described thus: Cocaine-induced locomotion test in mice. It is filed as in vivo. Conditions: tested alone, 0.1 mg/kg p.o.
The conditions of data set [3]: paediatric patients, cited from earlier work.
The nature of data set [4]: 14-day treatment in rats: body weight gain, fat mass (MR relaxometry), food intake.
Description: Along with body weight measurement, magnetic resonance (MR) relaxometry was employed to determine, in a noninvasive manner, fat mass composition in the animals.
Setting [5] is: HEK293 cells expressing mouse TAAR1, cAMP assay, read-out: EC50.
Where [6] appears, read: 10 and 30 mg/kg p.o., vs vehicle.
[7] abbreviates: 0.1 and 0.3 mg/kg p.o., vs vehicle.
Where [8] appears, read: 14 days, olanzapine 2 mg/kg p.o.

T1 sequence (Q923Y8 whole entry): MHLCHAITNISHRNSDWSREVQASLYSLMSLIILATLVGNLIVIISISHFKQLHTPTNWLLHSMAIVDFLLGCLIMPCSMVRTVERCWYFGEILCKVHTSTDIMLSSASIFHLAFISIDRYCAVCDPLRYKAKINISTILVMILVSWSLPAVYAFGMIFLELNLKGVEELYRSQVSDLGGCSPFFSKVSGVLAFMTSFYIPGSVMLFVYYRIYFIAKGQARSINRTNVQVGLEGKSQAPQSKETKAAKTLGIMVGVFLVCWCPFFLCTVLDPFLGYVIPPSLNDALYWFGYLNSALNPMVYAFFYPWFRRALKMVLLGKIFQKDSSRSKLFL

Regarding `O=C(Nc1ccc(C2CCNC2)cc1)c1ccc(Cl)cc1` (racemic) [Example S6, (RS)-4-Chloro-N-(4-pyrrolidin-3-yl-phenyl)-benzamide hydrochloride], the Emax at mouse TAAR1 was found to be 78%. Besides, on mouse TAAR1 (setting [5]), the half-maximal effective concentration (EC50) came out at 1.4 nM. Besides, in data set [1] (setting [6]), the “glucose AUC (0-60 min) during oGTT” value is given as “markedly lowered”.
Regarding `O=C(Nc1ccc(C2CCNC2)cc1)Nc1ccc(Cl)cn1` (racemic) [Example S7, (RS)-1-(5-Chloro-pyridin-2-yl)-3-(4-pyrrolidin-3-yl-phenyl)-urea hydrochloride], the Emax at mouse TAAR1 was 57%. The EC50 on mouse TAAR1 (setting [5]) was 0.8 nM. The “glucose AUC (0-60 min) during oGTT” value in data set [1] (10 mg/kg p.o., vs vehicle) was “markedly lowered”.
Turning to `O=C(Nc1ccc(C2CCNC2)cc1)c1ccc(Cl)cn1` (racemic) [Example S8, (RS)-5-Chloro-pyridine-2-carboxylic acid (4-pyrrolidin-3-yl-phenyl)-amide hydrochloride], on mouse TAAR1, the Emax was 65%. The EC50 on mouse TAAR1 (setting [5]) worked out at 7.4 nM. For the same molecule, the “glucose AUC (0-60 min) during oGTT” value in data set [1] (setting [6]) is recorded as “markedly lowered”.
Turning to `CC[C@@H](C[C@H]1COC(N)=N1)c1ccccc1` [Example S1, (S)-4-((S)-2-Phenyl-butyl)-4,5-dihydro-oxazol-2-ylamine], the cocaine-induced hyperlocomotor activity result in data set [2] is reported as “partially antagonized”. Also, the Emax on mouse TAAR1 turned out to be 90%. Further, the EC50 on mouse TAAR1 (setting [5]) worked out at 2 nM. Further, the fasting glucose levels result in data set [1] was “No effect”. Besides, in data set [1] (setting [7]), the “glucose AUC (0-60 min) during oGTT (blood glucose excursion)” value is reported as “significantly lowered; also recorded: markedly lowered” and the “insulin AUC (0-60 min) during oGTT (insulin excursion)” value is “significantly lower; also recorded: markedly lowered”.
On to `NC1=N[C@@H](c2ccc(Cl)cc2C(F)(F)F)CO1` [Example S3, (+)-(S)-4-(4-Chloro-2-trifluoromethyl-phenyl)-4,5-dihydro-oxazol-2-ylamine], for which, at mouse TAAR1, the EC50 amounted to 1.3 nM and the Emax came to 67%. Moreover, in data set [1] (1 and 3 mg/kg p.o., vs vehicle), the “glucose AUC (0-60 min) during oGTT” value is “markedly lowered” and the “insulin AUC (0-60 min) during oGTT” value is on record as “markedly lowered”.
Turning to `CCN(C[C@H]1COC(N)=N1)c1ccccc1` [Example S4, (S)-4-[(Ethyl-phenyl-amino)-methyl]-4,5-dihydro-oxazol-2-ylamine], the Emax on mouse TAAR1 amounted to 65%. Besides, the EC50 at mouse TAAR1 (setting [5]) worked out at 3.3 nM. Moreover, in data set [1] (0.3 mg/kg p.o., vs vehicle), the “glucose AUC (0-60 min) during oGTT” value is recorded as “markedly lowered” and the “insulin AUC (0-60 min) during oGTT” value was “markedly lowered”.
Take `CC[C@@H](C[C@H]1COC(N)=N1)Oc1cccc(O)c1` [Example S5, 3-[(S)-1-((S)-2-Amino-4,5-dihydro-oxazol-4-ylmethyl)-propoxy]-phenol]: at mouse TAAR1, the Emax came to 51%. Besides, at mouse TAAR1 (setting [5]), the EC50 is 1.6 nM. For the same molecule, the “glucose AUC (0-60 min) during oGTT” value in data set [1] (30 mg/kg p.o., vs vehicle) is recorded as “markedly lowered”.
In the case of `C[C@H](OC[C@H]1COC(N)=N1)c1ccc(F)cc1` [Example S9, (S)-4-[(S)-1-(4-Fluoro-phenyl)-ethoxymethyl]-4,5-dihydro-oxazol-2-ylamine], the Emax at mouse TAAR1 was determined as 99%. Moreover, the EC50 on mouse TAAR1 (setting [5]) was found to be 1.7 nM. Also, the “glucose AUC (0-60 min) during oGTT” value in data set [1] (10 mg/kg p.o., vs vehicle) is reported as “markedly lowered”.
For `NC1=N[C@@H](CCc2ccc(NC(=O)c3ncc(Cl)cn3)cc2)CO1` [Example S10, 5-Chloro-pyrimidine-2-carboxylic acid {4-[2-((S)-2-amino-4,5-dihydro-oxazol-4-yl)-ethyl]-phenyl}-amide], the Emax at mouse TAAR1 was found to be 32%. Besides, at mouse TAAR1 (setting [5]), the EC50 worked out at 1.6 nM. In data set [1] (10 mg/kg p.o., vs vehicle), the “glucose AUC (0-60 min) during oGTT” value was “markedly lowered”.
As to `NC1=N[C@@H](CCc2ccc(NC(=O)c3ccc(Cl)cc3)cc2)CO1` [Example S11, N-{4-[2-((S)-2-Amino-4,5-dihydro-oxazol-4-yl)-ethyl]-phenyl}-4-chloro-benzamide], the Emax at mouse TAAR1 was 45%. Further, the EC50 at mouse TAAR1 (setting [5]) worked out at 0.1 nM. Further, the “glucose AUC (0-60 min) during oGTT” value in data set [1] (1 and 3 mg/kg p.o., vs vehicle) is “markedly lowered”.
Regarding `Cc1cc(C(=O)Nc2ccc([C@@H]3CNCCO3)cc2)cc(Cl)n1` [Example S12, (R)-2-Chloro-6-methyl-N-(4-(morpholin-2-yl)phenyl)isonicotinamide hydrochloride], the Emax at mouse TAAR1 came to 69%. Also, on mouse TAAR1 (setting [5]), the EC50 was 3.1 nM. Also, the “glucose AUC (0-60 min) during oGTT” value in data set [1] (3 mg/kg p.o., vs vehicle) is recorded as “markedly lowered”.
Turning to `O=C(Nc1ccc([C@H]2CNCCO2)cc1)c1ccc(OCC(F)(F)F)nc1` [Example S13, (S)—N-(4-(Morpholin-2-yl)phenyl)-6-(2,2,2-trifluoroethoxy)nicotinamide hydrochloride], the Emax on mouse TAAR1 came out at 54%. Further, the EC50 at mouse TAAR1 (setting [5]) was determined as 1.6 nM. The “glucose AUC (0-60 min) during oGTT” value in data set [1] (3 mg/kg p.o., vs vehicle) is listed as “markedly lowered”.
For the molecule `O=C(Nc1ccc([C@H]2CNCCO2)cc1)c1ccnc(C(F)(F)F)c1` [Example S14, (S)—N-(4-(Morpholin-2-yl)phenyl)-2-(trifluoromethyl)isonicotinamide hydrochloride], the Emax on mouse TAAR1 was 55%. For the same molecule, the EC50 on mouse TAAR1 (setting [5]) stood at 4.6 nM. In addition, the “glucose AUC (0-60 min) during oGTT” value in data set [1] (1 mg/kg p.o., vs vehicle) is recorded as “markedly lowered”.
For the molecule `O=C(NCc1ccc(F)cc1)Nc1ccc([C@H]2CNCCO2)cc1` [Example S15, (S)-1-(4-Fluorobenzyl)-3-(4-(morpholin-2-yl)phenyl)urea hydrochloride], the Emax on mouse TAAR1 was determined as 40%. In addition, the EC50 at mouse TAAR1 (setting [5]) stood at 0.6 nM. Further, the “glucose AUC (0-60 min) during oGTT” value in data set [1] (1 mg/kg p.o., vs vehicle) was “markedly lowered”.
For `N#Cc1cccc(NC(=O)Nc2ccc([C@H]3CNCCO3)cc2)c1` [Example S16, (S)-1-(3-Cyanophenyl)-3-(4-(morpholin-2-yl)phenyl)urea hydrochloride], the Emax at mouse TAAR1 was 60%. For the same molecule, the EC50 on mouse TAAR1 (setting [5]) came to 0.4 nM. The “glucose AUC (0-60 min) during oGTT” value in data set [1] (1 mg/kg p.o., vs vehicle) is “markedly lowered”.
Regarding `O=C(Nc1ccc([C@H]2CNCCO2)cc1)c1ccc(Cl)nc1` [Example S17, (S)-6-Chloro-N-(4-(morpholin-2-yl)phenyl)nicotinamide hydrochloride], the Emax at mouse TAAR1 stood at 39%. In addition, the EC50 at mouse TAAR1 (setting [5]) worked out at 1.8 nM. Moreover, the “glucose AUC (0-60 min) during oGTT” value in data set [1] (0.3 and 1 mg/kg p.o., vs vehicle) was “markedly lowered”.
With `O=C1CCc2ccc(OCCCCN3CCN(c4cccc(Cl)c4Cl)CC3)cc2N1` [aripiprazole], the “adverse metabolic baseline-to-endpoint changes (total cholesterol, triglycerides, non-HDL cholesterol, ratio of triglycerides to HDL cholesterol)” value in data set [3] (study period) is “not significant”.
In the case of `Cc1cc2c(s1)Nc1ccccc1N=C2N1CCN(C)CC1` [olanzapine, reference compound], the “incidence rates of hyperglycaemia and the metabolic syndrome” value in data set [3] is given as “highest incidence rates”. In addition, in data set [4] (setting [8]), the food intake entry is on record as “increase” and the weight gain entry was “increase”. The “Cumulative food intake ± SEM” value in data set [4] (Study 2, olanzapine 2 mg/kg) worked out at 301.6 ± 8.6 g.
Take `OCCOCCN1CCN(C2=Nc3ccccc3Sc3ccccc32)CC1` [quetiapine]: in data set [3], the “incidence rates of hyperglycaemia and the metabolic syndrome” value was “modestly higher incidence rates”. The “adverse metabolic baseline-to-endpoint changes (total cholesterol, triglycerides, non-HDL cholesterol, ratio of triglycerides to HDL cholesterol)” value in data set [3] (study period) is “reached statistical significance”.
On to `Cc1nc2n(c(=O)c1CCN1CCC(c3noc4cc(F)ccc34)CC1)CCCC2` [risperidone], for which, in data set [3] (study period), the levels of triglycerides result is listed as “increased significantly”.
